From US10301314B2, “Compounds and methods for the prevention and treatment of tumor metastasis and tumorigenesis” (The United States of America, as represented by the …, priority 2011, dated 2019) come the findings set out here.

Each structure is given as a SMILES string.

Assay [1] concerns PC3M reporter cell line stably expressing the PTB-GFP. Briefly: ATP quantitation assay (ATPLite). Format: cell-based, human. The settings on record: Table 4, PC3M cells, 24 hrs incubation; for IC50: Homo sapiens, PC-3M. The method, then:
This follow-up assay was conducted to measure the effect of compounds on cell health by measuring ATP levels (ATPLite™). ATPLite™ is an ATP monitoring system based on firefly (Photinus pyralis) luciferase. The level of ATP in a metabolically active cell is a general marker for its viability. ATP levels are often reduced during necrosis or apoptosis. In this assay, the luciferase enzyme catalyzes the conversion of the added substrate D-luciferin to oxyluciferin and light with ATP. Thus, the emitted light is proportional to the ATP concentration. For this assay, the highly metastatic PC3M reporter cell line stably expressing the PTB-GFP was provided by Professor Sui Huang of Northwestern University. The media and cell culture reagents were purchased from Invitrogen (Carlsbad, Calif.), ATPLite™ came from PerkinElmer.

The subject of assay [2] is PC3M cell line that stably expresses GFP-PTB to mark PNCs. Briefly: High content assay for PNC detection (reduction of PNC prevalence). The following applies: Table 4, PC3M GFP-PTB cells, 16 hrs incubation; for IC50: Homo sapiens, PC-3M. It is filed as cell-based, human. The source says: The quantitative output for this assay is the reduction of PNC prevalence. The PNC can be detected in living cells by the expression of a green fluorescent protein (GFP) tagged to the PNC localized protein, PTB. A PC3M cell line was used that stably expresses GFP-PTB to mark PNCs. This method eliminates the need for immunofluorescent staining.
The IN Cell Analyzer 1000 automated fluorescent imaging system (GE Healthcare, Piscataway, N.J.) was used for automated image acquisition. […] The instrument acquired images of each well in a 1536-well plate with a laser-based autofocus system. To score PNC prevalence in a high-content throughput, the Multi-Target Analysis (MTA) algorithm (GE Healthcare, Investigator v3.5) to identify individual cells and granules (PNCs) within these cells was used. The nucleus was segmented via a region growing method (50 μm^2 minimum area) with light shading and noise removal to allow “touching” nuclei to be separated. Granules in the nucleus (PNCs) were segmented using a multiscale top hat method, which measures granules of 1 to 2 μm in size and used a smart masking method to identify the boundaries of each segmented granule. The algorithm was optimized and validated using positive and negative controls (50 μM camptothecin and DMSO, respectively). In particular, the MTA algorithm allows for the identification of multiple subcellular compartments and organelles (or granules) within those compartments. In this instance, the algorithm's capability to identify objects within the same color channel that only differ in size or fluorescent intensity was utilized. Also, the algorithm allows for building complex hierarchical classification systems, using output measures within the algorithm to filter and define subpopulations. For this particular assay, PNC-positive cells were scored when 1 to 3 PNC granules were detected per nucleus. Cells that contained 0 granules were scored as PNC negative, and cells with >3 granules were assumed to be false positives (very few cells have more than 3 PNCs in one focus plane), and were also scored as PNC negative.

Take `COc1ccc(-c2c(-c3ccc(OC)cc3)n(Cc3ccccc3)c3ncn(CCO)c(=N)c23)cc1` [Compound 103]: the IC50 turned out to be 24.1 µM in assay [1] and 18.7 µM in assay [2].
Take `COc1ccc(-c2c(-c3ccc(OC)cc3)n(Cc3ccccc3)c3ncn(C4CCOCC4)c(=N)c23)cc1` [Compound 104]: the IC50 in assay [1] worked out at 30.4 µM; in assay [2] it was 23.5 µM.
The like results for `N=c1c2c(-c3ccccc3)c(-c3ccccc3)n(Cc3ccc(S(N)(=O)=O)cc3)c2ncn1CCCO` [Compound 105] were, in that order, 304 µM and 23.5 µM.
For `N=c1c2c(-c3ccccc3)c(-c3ccccc3)n(CC3CCCCC3)c2ncn1CCCO` [Compound 106], the IC50 in assay [1] was 30.4 µM; in assay [2], 23.5 µM.
As to `N=c1c2c(-c3ccccc3)c(-c3ccccc3)n(Cc3ccco3)c2ncn1CCCN1CCOCC1` [Compound 107], the IC50 in assay [1] came to 32.4 µM; in assay [2], 25 µM.
As to `N=c1c2c(-c3ccccc3)c(-c3ccccc3)n(Cc3ccccc3)c2ncn1[C@H](CO)Cc1ccccc1` [Compound 108], the IC50 in assay [1] turned out to be 38.3 µM; in assay [2], 29.6 µM.
The corresponding values for `N=c1c2c(-c3ccccc3)cn(Cc3ccccc3)c2ncn1CCCCCO` [Compound 109] are 96.1 µM and 46.9 µM.
The corresponding values for `N=c1c2c(-c3ccccc3)cn(Cc3ccc(Br)cc3)c2ncn1CCCN1CCN(c2ccccc2)CC1` [Compound 110] are 30.4 µM and 46.9 µM.
Turning to `N=c1c2c(-c3ccccc3)cn(Cc3ccccc3)c2ncn1[C@H](CO)Cc1ccccc1` [Compound 111], the figures for the IC50 in assay [1] and in assay [2] were 121 µM and 93.5 µM, respectively.
On to `COc1ccc(Cn2c(-c3ccccc3)c(-c3ccccc3)c3c(=N)n([C@H](C)[C@@H](O)c4ccccc4)cnc32)cc1` [Compound 112], for which the IC50 in assay [1] amounted to 60.7 µM. For the same compound, the “PNC IC50(μM)” value in assay [2] is “inactive”.
Turning to `COc1ccc(-c2c(-c3ccc(OC)cc3)n(Cc3ccccc3)c3ncn(C4CCCC[C@H]4CO)c(=N)c23)cc1` (stereo partly shown) [Compound 113], in assay [1], the IC50 amounted to 30.4 µM. Further, the “PNC IC50(μM)” value in assay [2] is “inactive”.
`COC(=O)C[C@H](C(=O)OC)n1cnc2c(c(-c3ccccc3)cn2Cc2ccc(Br)cc2)c1=N` [Compound 114]: in assay [1], the “ATP IC50(μM)” value is “inactive”. Also, the “PNC IC50(μM)” value in assay [2] is “inactive”.
In assay [1], `COCCn1cnc2c(c(-c3ccccc3)cn2Cc2ccccc2)c1=N` [Compound 115] had an IC50 of 121 µM. Further, the “PNC IC50(μM)” value in assay [2] is “inactive”.
Take `CC[Si](CC)(CC)OCCCn1cnc2c(c(-c3ccccc3)cn2Cc2ccc(Br)cc2)c1=N` [Compound 116]: the “ATP IC50(μM)” value in assay [1] is “inactive”. Further, in assay [2], the “PNC IC50(μM)” value is “inactive”.
Take `N=c1c2c(-c3ccccc3)cn(Cc3ccccc3)c2ncn1[C@@H]1CCCC[C@H]1N` [Compound 117]: in assay [1], it took 96.1 µM to reach half-maximal inhibition (IC50). Also, the “PNC IC50(μM)” value in assay [2] is “inactive”.
In turn, `N=c1c2c(-c3ccccc3)cn(Cc3ccccc3)c2ncn1CCCO` [Compound 118] registered an IC50 in assay [1] of 121 µM. Besides, the “PNC IC50(μM)” value in assay [2] is “inactive”.
For `C[C@H]([C@@H](O)c1ccccc1)n1cnc2c(c(-c3ccccc3)cn2Cc2ccccc2)c1=N` [Compound 119], the IC50 in assay [1] stood at 121 µM. In assay [2], the “PNC IC50(μM)” value was “inactive”.
For `N=c1c2c(-c3ccccc3)cn(Cc3ccccc3)c2ncn1CCCCO` [Compound 120], the IC50 in assay [1] is 241 µM. In addition, the “PNC IC50(μM)” value in assay [2] was “inactive”.
The compound `COC(=O)c1ccc(Cn2cnc3c(c(-c4ccccc4)cn3Cc3ccccc3)c2=N)cc1` [Compound 121] had an IC50 in assay [1] of 121 µM. For the same compound, the “PNC IC50(μM)” value in assay [2] is “inactive”.
Regarding `N=c1c2c(-c3ccccc3)cn(Cc3ccccc3)c2ncn1C1CCOCC1` [Compound 122], the “ATP IC50(μM)” value in assay [1] is “inactive”. In assay [2], the “PNC IC50(μM)” value is “inactive”.
In turn, `COc1ccc(-c2c(-c3ccc(OC)cc3)n(Cc3ccccc3)c3ncn(CC4CCOCC4)c(=N)c23)cc1` [Compound 123] yielded an IC50 in assay [1] of 24.1 µM. Moreover, the “PNC IC50(μM)” value in assay [2] was “inactive”.
As to `C#CCn1cnc2c(c(-c3ccccc3)cn2Cc2ccccc2)c1=N` [Compound 124], the “ATP IC50(μM)” value in assay [1] is “inactive”. For the same compound, the “PNC IC50(μM)” value in assay [2] is “inactive”.
Regarding `N=c1c2c(-c3ccccc3)cn(Cc3ccccc3)c2ncn1CCCN1CCN(c2ccccc2)CC1` [Compound 125], the IC50 in assay [1] turned out to be 30.4 µM. Further, the “PNC IC50(μM)” value in assay [2] was “inactive”.
The compound `N=c1c2c(-c3ccccc3)c(-c3ccccc3)n(Cc3ccccc3)c2ncn1CC1COC1` [Compound 126] returned an IC50 in assay [1] of 96.1 µM. The “PNC IC50(μM)” value in assay [2] is “inactive”.
The corresponding values for `N=c1c2c(-c3ccccc3)cn(Cc3ccccc3)c2ncn1CC1CCCO1` (stereo not shown) [Compound 127] are 96.1 µM and “inactive”.
Take `COC(=O)C[C@@H](C(=O)OC)n1cnc2c(c(-c3ccccc3)cn2Cc2ccccc2)c1=N` [Compound 128]: the “ATP IC50(μM)” value in assay [1] is “inactive”. For the same compound, in assay [2], the “PNC IC50(μM)” value was “inactive”.
As for `COc1ccc(-c2c(-c3ccc(OC)cc3)n(Cc3ccccc3)c3ncn(CC4COC4)c(=N)c23)cc1` [Compound 129], the “ATP IC50(μM)” value in assay [1] is “inactive”. The “PNC IC50(μM)” value in assay [2] was “inactive”.
In assay [1], `COc1ccc(CCn2cnc3c(c(-c4ccccc4)cn3Cc3ccccc3)c2=N)cc1OC` [Compound 130] returned an IC50 of 24.1 µM. For the same compound, the “PNC IC50(μM)” value in assay [2] was “inactive”.
In turn, `N=c1c2c(-c3ccccc3)cn(Cc3ccccc3)c2ncn1CCNCCO` [Compound 131] displayed an IC50 in assay [1] of 121 µM. For the same compound, the “PNC IC50(μM)” value in assay [2] is “inactive”.
`COc1ccc(-c2c(-c3ccc(OC)cc3)n(Cc3ccccc3)c3ncn([C@H]4CC[C@@H](O)CC4)c(=N)c23)cc1` [Compound 132]: in assay [1], the “ATP IC50(μM)” value is “inactive”. For the same compound, the “PNC IC50(μM)” value in assay [2] was “inactive”.
`N=c1c2c(-c3ccccc3)c(-c3ccccc3)n(CC3CC3)c2ncn1CC1CCOCC1` [Compound 134] gave an IC50 in assay [1] of 60.7 µM. The “PNC IC50(μM)” value in assay [2] is “inactive”.
In turn, `COc1ccc(-c2c(-c3ccc(OC)cc3)n(Cc3ccccc3)c3ncn(CCCO)c(=N)c23)cc1` [Compound 135] registered an IC50 in assay [1] of 30.4 µM. Further, in assay [2], the “PNC IC50(μM)” value was “inactive”.
Take `N=c1c2c(-c3ccccc3)cn(Cc3ccccc3)c2ncn1CCN` [Compound 136]: the “ATP IC50(μM)” value in assay [1] is “inactive”. In addition, in assay [2], the “PNC IC50(μM)” value is “inactive”.
On to `OCCNc1ncnc2c1c(-c1ccccc1)c(-c1ccccc1)n2Cc1ccco1` [Compound 137], for which, in assay [1], the “ATP IC50(μM)” value is “inactive”. Also, the “PNC IC50(μM)” value in assay [2] is “inactive”.
For the compound `N=c1c2c(-c3ccccc3)cn(Cc3ccccc3)c2ncn1Cc1ccco1` [Compound 138], the IC50 in assay [1] is 60.7 µM. Also, the “PNC IC50(μM)” value in assay [2] is “inactive”.
For the compound `N=c1c2c(-c3ccccc3)cn(Cc3ccccc3)c2ncn1[C@H]1CC[C@H](O)CC1` [Compound 139], in assay [1], the “ATP IC50(μM)” value was “inactive”. Besides, the “PNC IC50(μM)” value in assay [2] was “inactive”.
`N=c1c2c(-c3ccccc3)cn(Cc3ccccc3)c2ncn1CCO` [Compound 140]: the “ATP IC50(μM)” value in assay [1] is “inactive”. Moreover, the “PNC IC50(μM)” value in assay [2] was “inactive”.
Regarding `CC(C)Cn1cnc2c(c(-c3ccccc3)c(-c3ccccc3)n2Cc2ccco2)c1=N` [Compound 141], the IC50 amounted to 20.4 µM in assay [1] and 15.8 µM in assay [2].
